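In this assay, cells in 96-well plates receive the compound at five concentrations for 48 hours. Endpoints are linearly interpolated between the surrounding concentrations. TGI is the concentration that stops growth completely.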

One assay deals with SF-268 CNS. The assay is described as follows: DTP human tumour cell line panel, 48 h.
One may read the TGI as the concentration giving total growth inhibition. High values mean less potent growth arrest, low ones more potent growth arrest. In turn, `Clc1ccc(/C(=C\c2ccccc2)Cn2ccnc2)cc1` gave a TGI of 53.4 µM.
Still for that read-out and setting: with `CCOC(=O)NC(Nc1c(F)c(F)c(F)c(F)c1F)(C(F)(F)F)C(F)(F)F` the figure was over 100 µM; with `COC(=O)N1N=C(c2ccccc2)C1c1ccccc1` (stereo unspecified), over 100 µM; with `O=C1c2cccc(O)c2C(=O)c2c(OC3OC(CO)C(O)C(O)C3O)cccc21` (stereo unspecified), 67.6 µM.

The subject of the next assay is NCI-H522 lung. Description: DTP human tumour cell line panel, 48 h.
On to `Clc1ccc(/C(=C\c2ccccc2)Cn2ccnc2)cc1`, for which the TGI worked out at 28 µM. This lies in the double-digit micromolar range.
In turn, `CCOC(=O)NC(Nc1c(F)c(F)c(F)c(F)c1F)(C(F)(F)F)C(F)(F)F` gave a TGI of over 100 µM.
`O=C1c2cccc(O)c2C(=O)c2c(OC3OC(CO)C(O)C(O)C3O)cccc21` (stereo unspecified) gave a TGI of 40.5 µM.

Another assay has as its system NCI-H460 lung. Description: DTP human tumour cell line panel, 48 h.
For the molecule `Clc1ccc(/C(=C\c2ccccc2)Cn2ccnc2)cc1`, the TGI came to 44.8 µM.
Same read-out and setting: with `CCOC(=O)NC(Nc1c(F)c(F)c(F)c(F)c1F)(C(F)(F)F)C(F)(F)F` the figure was over 100 µM.
The molecule `COC(=O)N1N=C(c2ccccc2)C1c1ccccc1` (stereo unspecified) gave a total growth inhibition concentration (TGI) of over 100 µM.
On the same count and under the same terms, with `O=C1c2cccc(O)c2C(=O)c2c(OC3OC(CO)C(O)C(O)C3O)cccc21` (stereo unspecified) the figure was 59 µM.

The next assay relates to SNB-75 CNS. Description: DTP human tumour cell line panel, 48 h.
In the case of `Clc1ccc(/C(=C\c2ccccc2)Cn2ccnc2)cc1`, the TGI was found to be 59.4 µM.
Molecule `CCOC(=O)NC(Nc1c(F)c(F)c(F)c(F)c1F)(C(F)(F)F)C(F)(F)F` gave a TGI of over 100 µM.
On to `COC(=O)N1N=C(c2ccccc2)C1c1ccccc1` (stereo unspecified), for which the total growth inhibition concentration (TGI) is over 100 µM.
`O=C1c2cccc(O)c2C(=O)c2c(OC3OC(CO)C(O)C(O)C3O)cccc21` (stereo unspecified) showed a TGI of 54.6 µM. That is a double-digit micromolar value.

A further assay has as its system ACHN renal. The assay is described as follows: DTP human tumour cell line panel, 48 h.
As for `Clc1ccc(/C(=C\c2ccccc2)Cn2ccnc2)cc1`, the TGI came out at 67.6 µM. This counts as double-digit micromolar.
Still for that read-out and setting: with `CCOC(=O)NC(Nc1c(F)c(F)c(F)c(F)c1F)(C(F)(F)F)C(F)(F)F` the figure was over 100 µM; with `O=C1c2cccc(O)c2C(=O)c2c(OC3OC(CO)C(O)C(O)C3O)cccc21` (stereo unspecified), over 100 µM.

Another assay concerns 786-0 renal. The assay is described as follows: DTP human tumour cell line panel, 48 h.
`Clc1ccc(/C(=C\c2ccccc2)Cn2ccnc2)cc1` registered a TGI of 38.5 µM.
For the molecule `CCOC(=O)NC(Nc1c(F)c(F)c(F)c(F)c1F)(C(F)(F)F)C(F)(F)F`, the TGI is over 100 µM.
On the same count and under the same terms, with `COC(=O)N1N=C(c2ccccc2)C1c1ccccc1` (stereo unspecified) the figure was over 100 µM.
In turn, `O=C1c2cccc(O)c2C(=O)c2c(OC3OC(CO)C(O)C(O)C3O)cccc21` (stereo unspecified) showed a TGI of over 100 µM.

A further assay relates to SK-MEL-5 melanoma. The assay is described as follows: DTP human tumour cell line panel, 48 h.
The molecule `Clc1ccc(/C(=C\c2ccccc2)Cn2ccnc2)cc1` came in with a TGI of 25.6 µM. In other words, the double-digit micromolar range.
Molecule `CCOC(=O)NC(Nc1c(F)c(F)c(F)c(F)c1F)(C(F)(F)F)C(F)(F)F` gave a concentration for total growth inhibition (TGI) of over 100 µM.
Same read-out and setting: with `O=C1c2cccc(O)c2C(=O)c2c(OC3OC(CO)C(O)C(O)C3O)cccc21` (stereo unspecified) the figure was 36 µM.

A further assay concerns HT29 colon. Description: DTP human tumour cell line panel, 48 h.
As for `Clc1ccc(/C(=C\c2ccccc2)Cn2ccnc2)cc1`, the TGI was determined as 30.1 µM.
For `COC(=O)N1N=C(c2ccccc2)C1c1ccccc1` (stereo unspecified), the TGI was over 100 µM.
Take `O=C1c2cccc(O)c2C(=O)c2c(OC3OC(CO)C(O)C(O)C3O)cccc21` (stereo unspecified): the TGI was over 100 µM.

For the next assay, the system named is EKVX NSCLC. Description: DTP human tumour cell line panel, 48 h.
The molecule `Clc1ccc(/C(=C\c2ccccc2)Cn2ccnc2)cc1` registered a TGI of 68.4 µM.
In the case of `CCOC(=O)NC(Nc1c(F)c(F)c(F)c(F)c1F)(C(F)(F)F)C(F)(F)F`, the TGI was over 100 µM.
Consider `COC(=O)N1N=C(c2ccccc2)C1c1ccccc1` (stereo unspecified), for which the TGI was over 100 µM.
Still for that read-out and setting: with `O=C1c2cccc(O)c2C(=O)c2c(OC3OC(CO)C(O)C(O)C3O)cccc21` (stereo unspecified) the figure was over 100 µM.

For another assay, the system named is SF-539 CNS. The assay is described as follows: DTP human tumour cell line panel, 48 h.
As to `Clc1ccc(/C(=C\c2ccccc2)Cn2ccnc2)cc1`, the TGI was found to be 31.5 µM. This lies in the double-digit micromolar range.
`CCOC(=O)NC(Nc1c(F)c(F)c(F)c(F)c1F)(C(F)(F)F)C(F)(F)F` gave a TGI of over 100 µM.
Take `COC(=O)N1N=C(c2ccccc2)C1c1ccccc1` (stereo unspecified): the TGI was over 100 µM.
Take `O=C1c2cccc(O)c2C(=O)c2c(OC3OC(CO)C(O)C(O)C3O)cccc21` (stereo unspecified): the TGI came to 58.1 µM.

The next assay has as its system SNB-19 CNS. The assay is described as follows: DTP human tumour cell line panel, 48 h.
`Clc1ccc(/C(=C\c2ccccc2)Cn2ccnc2)cc1` had a TGI of 49.4 µM.
Consider `CCOC(=O)NC(Nc1c(F)c(F)c(F)c(F)c1F)(C(F)(F)F)C(F)(F)F`, for which the TGI is over 100 µM.
With `COC(=O)N1N=C(c2ccccc2)C1c1ccccc1` (stereo unspecified), the TGI was over 100 µM.
The molecule `O=C1c2cccc(O)c2C(=O)c2c(OC3OC(CO)C(O)C(O)C3O)cccc21` (stereo unspecified) displayed a TGI of over 100 µM.

Another assay has as its system OVCAR-5 ovarian. Description: DTP human tumour cell line panel, 48 h.
For the molecule `Clc1ccc(/C(=C\c2ccccc2)Cn2ccnc2)cc1`, the TGI is 63 µM.
In the case of `CCOC(=O)NC(Nc1c(F)c(F)c(F)c(F)c1F)(C(F)(F)F)C(F)(F)F`, the TGI is over 100 µM.
In turn, `COC(=O)N1N=C(c2ccccc2)C1c1ccccc1` (stereo unspecified) displayed a TGI of over 100 µM.
As to `O=C1c2cccc(O)c2C(=O)c2c(OC3OC(CO)C(O)C(O)C3O)cccc21` (stereo unspecified), the TGI was over 100 µM.

The next assay deals with T-47D breast. Description: DTP human tumour cell line panel, 48 h.
The molecule `Clc1ccc(/C(=C\c2ccccc2)Cn2ccnc2)cc1` displayed a TGI of 69.9 µM.
`CCOC(=O)NC(Nc1c(F)c(F)c(F)c(F)c1F)(C(F)(F)F)C(F)(F)F` registered a TGI of over 100 µM.
With `COC(=O)N1N=C(c2ccccc2)C1c1ccccc1` (stereo unspecified), the TGI was over 100 µM.
The molecule `O=C1c2cccc(O)c2C(=O)c2c(OC3OC(CO)C(O)C(O)C3O)cccc21` (stereo unspecified) showed a TGI of 49.1 µM.

In a further assay the test system is A498 renal. Description: DTP human tumour cell line panel, 48 h.
With `Clc1ccc(/C(=C\c2ccccc2)Cn2ccnc2)cc1`, the TGI was 42.1 µM.
Same read-out and setting: with `CCOC(=O)NC(Nc1c(F)c(F)c(F)c(F)c1F)(C(F)(F)F)C(F)(F)F` the figure was over 100 µM; with `COC(=O)N1N=C(c2ccccc2)C1c1ccccc1` (stereo unspecified), over 100 µM; with `O=C1c2cccc(O)c2C(=O)c2c(OC3OC(CO)C(O)C(O)C3O)cccc21` (stereo unspecified), over 100 µM.

A further assay concerns UO-31 renal. Description: DTP human tumour cell line panel, 48 h.
`Clc1ccc(/C(=C\c2ccccc2)Cn2ccnc2)cc1` showed a TGI of 32.4 µM.
Still for that read-out and setting: with `CCOC(=O)NC(Nc1c(F)c(F)c(F)c(F)c1F)(C(F)(F)F)C(F)(F)F` the figure was over 100 µM; with `COC(=O)N1N=C(c2ccccc2)C1c1ccccc1` (stereo unspecified), 52.9 µM; with `O=C1c2cccc(O)c2C(=O)c2c(OC3OC(CO)C(O)C(O)C3O)cccc21` (stereo unspecified), over 100 µM.

Values taken from PubChem BioAssay (NCI).
